Experimental data published in PubChem BioAssay (NCI).
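1) Cells in 96-well plates. 2) Compound, 48 h, 5 concentrations. 3) Linear interpolation between surrounding doses. 4) Unreached endpoint = highest concentration. GI50: concentration for 50% inhibition of growth. TGI: concentration producing complete growth inhibition.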

Legend:
Assay in all cases: growth of human tumour cells (NCI), 48 h
SK-OV-3 ovarian = test system: SK-OV-3 ovarian
LOX IMVI melanoma = test system: LOX IMVI melanoma
T-47D breast = test system: T-47D breast
A549 NSCLC = test system: A549 NSCLC
OVCAR-3 ovarian = test system: OVCAR-3 ovarian
HL-60(TB) leukemia = test system: HL-60(TB) leukemia
MALME-3M melanoma = test system: MALME-3M melanoma
MDA-MB-231 breast = test system: MDA-MB-231 breast
HS 578T breast = test system: HS 578T breast
SW-620 colon = test system: SW-620 colon

SMILES | GI50 (SK-OV-3 ovarian) [µM] | TGI (SK-OV-3 ovarian) [µM] | GI50 (LOX IMVI melanoma) [µM] | TGI (LOX IMVI melanoma) [µM] | GI50 (T-47D breast) [µM] | TGI (T-47D breast) [µM] | GI50 (A549 NSCLC) [µM] | TGI (A549 NSCLC) [µM] | GI50 (OVCAR-3 ovarian) [µM] | TGI (OVCAR-3 ovarian) [µM] | GI50 (HL-60(TB) leukemia) [µM] | TGI (HL-60(TB) leukemia) [µM] | GI50 (MALME-3M melanoma) [µM] | TGI (MALME-3M melanoma) [µM] | GI50 (MDA-MB-231 breast) [µM] | TGI (MDA-MB-231 breast) [µM] | GI50 (HS 578T breast) [µM] | TGI (HS 578T breast) [µM] | GI50 (SW-620 colon) [µM] | TGI (SW-620 colon) [µM]
COc1cc(-c2csc(NC(=O)Nc3ccc(C(F)(F)F)cc3)n2)cc(OC)c1OC | 2.68 | 8.33 | 1.59 | 3.15 | 1.97 | 7.65 | 2.74 | 11.7 | 2 | 5.22 | 3.75 | 8.05 | 1.85 | 4.94 | 1.55 | 3.69 | 2.17 | 5.47 | 2.19 | 5.3
Cc1cn2c(/C=N/N=C(N)N)c(-c3ccccn3)nc2s1 | 26.8 | > 65 | 20.1 | 46.1 | 7.59 | 18.2 | 21.1 | > 70.1 | 17.3 | 34.2 | 4.56 | > 100 | 21.8 | 44.4 | 17.2 | 39.6 | 19.5 | 55.6 | 7.61 | 25
CCc1ccc(C(=Nc2ccc(N(C)C(=O)CN3CCN(C)CC3)cc2)c2c(O)[nH]c3ccc(C(=O)OC)cc23)cc1 | 0.245 | 1.23 | 0.337 | 1.63 | 0.87 | 2.68 | 0.319 | 1.64 | 0.538 | 1.96 | 0.328 | 1.01 | 0.516 | 1.9 | 0.585 | 2.09 | 0.169 | 1.1 | 0.259 | 1.29
Cc1ccc(C(=O)/C(=C\c2ccc([N+](=O)[O-])cc2)S(=O)Cc2ccc(Cl)cc2)cc1 (stereo unspecified) | 9.55 | 21.3 | 1.55 | 3.04 | 1.51 | 3.37 | 3.05 | 11 | 1.7 | 3.14 | 2.47 | 6.82 | 1.74 | 3.64 | 1.86 | 3.88 | 2.48 | 7.39 | 1.59 | 3.44
Cc1cc(-c2ccccn2)cc(C)c1/C=C/c1cncc(-c2nn[nH]n2)c1 | > 25 | > 25 | > 25 | > 25 | > 25 | > 25 | > 25 | > 25 | > 25 | > 25 | > 25 | > 25 | > 25 | > 25 | > 25 | > 25 | > 25 | > 25 | > 25 | > 25
O=C1/C(=C/c2ccc(Cl)cc2)CCC/C1=C\c1ccc(Cl)cc1 | 9.84 | > 100 | 1.69 | 3.42 | 8.76 | > 100 | 3.63 | > 100 | 3.03 | 7.77 | 3.56 | > 100 | > 100 | > 100 | 9.83 | > 100 | 3.43 | > 100 | 2.36 | 6.39
CC1(N)CCN(c2cnc(-c3cccc(Cl)c3Cl)c(N)n2)CC1 | 3.02 | 60.5 | 15.3 | 30 | 17.3 | 68.4 | 16.6 | > 100 | 35.1 | > 100 | 41.9 | > 100 | 16.4 | 32.1 | 18.2 | 48.7 | 13.3 | 64 | 19.3 | > 100
CCOC(=O)C#Cc1c(C(=O)OCC)nnn1Cc1ccc([N+](=O)[O-])cc1 | 21.9 | 51.1 | 0.949 | 2.29 | 2.78 | 7.65 | 20.6 | 34.8 | – | – | 1.62 | 5.62 | 1.99 | 4.29 | 3.25 | 9.14 | 19.4 | 61.4 | 1.85 | 3.79
Oc1c(Cl)cc(Cl)cc1C(c1cc(Cl)cc(Cl)c1O)C(Cl)(Cl)Cl | 3.01 | 13.3 | 2.08 | 5.57 | 2.39 | 11.3 | 3.77 | 14.4 | 2.4 | 10.8 | 3.25 | 10.3 | 2.8 | 7.2 | 1.59 | 4.81 | 2.28 | 10.4 | 2.98 | 12.2
NS(=O)(=O)NCCNc1nonc1C(=Nc1ccc(F)c(Br)c1)NO | 67.4 | > 100 | 27.9 | > 100 | 35.1 | > 100 | 68.9 | > 100 | 34.6 | > 100 | 36.9 | > 100 | 28.5 | > 100 | 34 | > 100 | 30.3 | > 100 | 51.1 | > 100
Oc1ccc(C2c3ccccc3Oc3ccccc32)c2cccnc12 | 1.75 | > 100 | 0.778 | > 100 | 2.95 | > 100 | 1.79 | > 100 | 2.45 | > 100 | 1.94 | > 100 | 2.83 | 27.4 | 4.36 | > 100 | 3.45 | > 100 | 1.17 | > 100
O=NNc1ccc(Sc2ccc(NN=O)cn2)nc1 | – | > 100 | – | – | – | > 100 | – | > 100 | – | > 100 | – | > 100 | – | – | – | > 100 | – | > 100 | – | > 100
